# Results from publication PMC5218480 (PLoS ONE, 2017).
# System: MV-4-11 cells
# Assay: Gene expression microarray analysis (Affymetrix PrimeView) and GSEA
# Format: cell-based, human
# Design: RFU PODN (11730768_x_at) / Fold change /veh PODN (11730768_x_at) / RFU LINC00158 (11744669_a_at) / Fold change /veh LINC00158 (11744669_a_at) / RFU DUSP10 (11751237_a_at) / Fold change /veh DUSP10 (11751237_a_at) / RFU ID3 (11757404_x_at) / Fold change /veh ID3 (11757404_x_at) / RFU PLEKHG5 (11737974_s_at) / Fold change /veh PLEKHG5 (11737974_s_at) / RFU LRRC4B (11730491_at) / Fold change /veh LRRC4B (11730491_at) / RFU GIMAP4 (11747438_a_at) / Fold change /veh GIMAP4 (11747438_a_at) / RFU KRT8 (11758183_x_at) / Fold change /veh KRT8 (11758183_x_at) / RFU CNN1 (11734310_a_at) / Fold change /veh CNN1 (11734310_a_at) / RFU VPS37D (11726825_at) / Fold change /veh VPS37D (11726825_at) / RFU C10orf10 (11716522_x_at) / Fold change /veh C10orf10 (11716522_x_at) / RFU KIR2DL2 /// KIR2DL4 /// KIR2DL5A /// KIR2DL5B /// KIR2DS1 /// KIR2DS2 /// KIR2DS3 /// KIR2DS4 /// KIR3DL3 /// KIR3DL3 /// KIR3DS1 (11738374_at) / Fold change /veh KIR2DL2 /// KIR2DL4 /// KIR2DL5A /// KIR2DL5B /// KIR2DS1 /// KIR2DS2 /// KIR2DS3 /// KIR2DS4 /// KIR3DL3 /// KIR3DL3 /// KIR3DS1 (11738374_at) / RFU C1QL1 (11718748_at) / Fold change /veh C1QL1 (11718748_at) / RFU TMPRSS4 (11747572_a_at) / Fold change /veh TMPRSS4 (11747572_a_at) / RFU HAMP (11756126_x_at) / Fold change /veh HAMP (11756126_x_at) / RFU RNFT2 (11725882_a_at) / Fold change /veh RNFT2 (11725882_a_at) / RFU NR4A2 (11747474_a_at) / Fold change /veh NR4A2 (11747474_a_at) / RFU ABCC12 (11746883_a_at) / Fold change /veh ABCC12 (11746883_a_at) / RFU TMEM136 (11760407_x_at) / Fold change /veh TMEM136 (11760407_x_at) / RFU CLDN22 /// WWC2 (11732394_at) / Fold change /veh CLDN22 /// WWC2 (11732394_at) / RFU HLA-DPB1 (11760878_x_at) / Fold change /veh HLA-DPB1 (11760878_x_at) / RFU SPINT1 (11716480_a_at) / Fold change /veh SPINT1 (11716480_a_at) / RFU GAP43 (11754022_s_at) / Fold change /veh GAP43 (11754022_s_at) / RFU A4GNT (11735810_at) / Fold change /veh A4GNT (11735810_at) / RFU PRB3 (11715151_x_at) / Fold change /veh PRB3 (11715151_x_at) / RFU TUBB4B (11761932_at) / Fold change /veh TUBB4B (11761932_at) / RFU CAPN14 (11732068_a_at) / Fold change /veh CAPN14 (11732068_a_at) / RFU TMCC2 (11721928_a_at) / Fold change /veh TMCC2 (11721928_a_at) / RFU IRGQ (11745062_a_at) / Fold change /veh IRGQ (11745062_a_at) / RFU FAM174B (11720279_a_at) / Fold change /veh FAM174B (11720279_a_at) / RFU TMPRSS4 (11748680_a_at) / Fold change /veh TMPRSS4 (11748680_a_at) / RFU FAM212B (11763350_a_at) / Fold change /veh FAM212B (11763350_a_at) / RFU PLEKHG5 (11743358_a_at) / Fold change /veh PLEKHG5 (11743358_a_at) / RFU ZSCAN30 (11745921_a_at) / Fold change /veh ZSCAN30 (11745921_a_at) / RFU CMKLR1 (11741424_a_at) / Fold change /veh CMKLR1 (11741424_a_at) / RFU LOC101060620 /// MAPK8IP1 (11723275_at) / Fold change /veh LOC101060620 /// MAPK8IP1 (11723275_at) / RFU SPTSSB (11747773_x_at) / Fold change /veh SPTSSB (11747773_x_at) / RFU PRSS12 (11739890_at) / Fold change /veh PRSS12 (11739890_at) / RFU BIN1 (11741810_x_at) / Fold change /veh BIN1 (11741810_x_at) / RFU WNT11 (11732464_a_at) / Fold change /veh WNT11 (11732464_a_at) / RFU C10orf10 (11716521_a_at) / Fold change /veh C10orf10 (11716521_a_at) / RFU C5orf56 (11738089_at) / Fold change /veh C5orf56 (11738089_at) / RFU CYB561 (11721691_x_at) / Fold change /veh CYB561 (11721691_x_at) / RFU ANKRD19P (11752326_a_at) / Fold change /veh ANKRD19P (11752326_a_at) / RFU OR2T12 /// OR2T33 /// OR2T8 (11738714_s_at) / Fold change /veh OR2T12 /// OR2T33 /// OR2T8 (11738714_s_at) / RFU VCAN (11748164_a_at) / Fold change /veh VCAN (11748164_a_at) / RFU JSRP1 (11732532_at) / Fold change /veh JSRP1 (11732532_at) / RFU KRTAP10-11 (11738290_x_at) / Fold change /veh KRTAP10-11 (11738290_x_at) / RFU MYO3A (11730013_a_at) / Fold change /veh MYO3A (11730013_a_at) / RFU EBF3 (11725865_a_at) / Fold change /veh EBF3 (11725865_a_at) / RFU CAMK2N1 (11719241_x_at) / Fold change /veh CAMK2N1 (11719241_x_at) / RFU C5orf56 (11738088_a_at) / Fold change /veh C5orf56 (11738088_a_at) / RFU OLFML3 (11715873_a_at) / Fold change /veh OLFML3 (11715873_a_at) / RFU LOC100653217 /// NTM (11731650_a_at) / Fold change /veh LOC100653217 /// NTM (11731650_a_at) / RFU MAPK11 (11762145_a_at) / Fold change /veh MAPK11 (11762145_a_at) / RFU FIZ1 (11724087_x_at) / Fold change /veh FIZ1 (11724087_x_at) / RFU OASL (11726364_x_at) / Fold change /veh OASL (11726364_x_at) / RFU SOX15 (11748057_x_at) / Fold change /veh SOX15 (11748057_x_at) / RFU CD79A (11719716_a_at) / Fold change /veh CD79A (11719716_a_at) / RFU HIST1H1D (11736915_at) / Fold change /veh HIST1H1D (11736915_at) / RFU CASKIN2 (11723855_a_at) / Fold change /veh CASKIN2 (11723855_a_at) / RFU LOC730098 (11760151_x_at) / Fold change /veh LOC730098 (11760151_x_at) / RFU OR4N2 (11742367_at) / Fold change /veh OR4N2 (11742367_at) / RFU PRRT2 (11749266_a_at) / Fold change /veh PRRT2 (11749266_a_at) / RFU SNX32 (11753110_a_at) / Fold change /veh SNX32 (11753110_a_at) / RFU CDHR5 (11726645_a_at) / Fold change /veh CDHR5 (11726645_a_at) / RFU RCAN1 (11760418_a_at) / Fold change /veh RCAN1 (11760418_a_at) / RFU FAM167A (11723789_a_at) / Fold change /veh FAM167A (11723789_a_at) / RFU FAM26E (11764081_at) / Fold change /veh FAM26E (11764081_at) / RFU ISYNA1 (11749810_s_at) / Fold change /veh ISYNA1 (11749810_s_at) / RFU ACY1 (11761880_at) / Fold change /veh ACY1 (11761880_at) / RFU 11764098_at / Fold change /veh 11764098_at / RFU SAMD14 (11745864_x_at) / Fold change /veh SAMD14 (11745864_x_at) / RFU NPB (11741838_a_at) / Fold change /veh NPB (11741838_a_at) / RFU TMPRSS6 (11731388_a_at) / Fold change /veh TMPRSS6 (11731388_a_at) / RFU KRTAP10-2 (11738614_at) / Fold change /veh KRTAP10-2 (11738614_at) / RFU ARHGAP8 /// PRR5-ARHGAP8 (11727945_x_at) / Fold change /veh ARHGAP8 /// PRR5-ARHGAP8 (11727945_x_at) / RFU KRTAP5-7 /// NADSYN1 (11734609_at) / Fold change /veh KRTAP5-7 /// NADSYN1 (11734609_at) / RFU RASL12 (11751679_a_at) / Fold change /veh RASL12 (11751679_a_at) / RFU CDKN2B (11736163_a_at) / Fold change /veh CDKN2B (11736163_a_at) / RFU PRF1 (11729649_at) / Fold change /veh PRF1 (11729649_at) / RFU, ZNF638 /// ZNF638-IT1 / Fold change vs veh, ZNF638 /// ZNF638-IT1 / RFU, PANK3 / Fold change vs veh, PANK3 / RFU, SH3YL1 / Fold change vs veh, SH3YL1 / RFU, ZEB2 / Fold change vs veh, ZEB2 / RFU, NRIP1 / Fold change vs veh, NRIP1 / RFU, PTTG1IP / Fold change vs veh, PTTG1IP / RFU, CAPN2 / Fold change vs veh, CAPN2 / RFU, MED14 / Fold change vs veh, MED14 / RFU, SNORA58 / Fold change vs veh, SNORA58 / RFU, C1orf63 / Fold change vs veh, C1orf63 / RFU, LRRFIP1 / Fold change vs veh, LRRFIP1 / RFU, NDUFAF7 / Fold change vs veh, NDUFAF7 / RFU, SLC12A2 / Fold change vs veh, SLC12A2 / RFU, IBTK / Fold change vs veh, IBTK / RFU, ESF1 / Fold change vs veh, ESF1 / Fold change vs veh, TMEM50B / RFU, TAOK1 / Fold change vs veh, TAOK1 / RFU, ACBD3 / Fold change vs veh, ACBD3 / RFU, TMA16 / Fold change vs veh, TMA16 / RFU, RWDD3 / Fold change vs veh, RWDD3 / RFU, BCAT1 / Fold change vs veh, BCAT1 / RFU, EDEM3 / Fold change vs veh, EDEM3 / RFU, TMEM33 / Fold change vs veh, TMEM33 / RFU, WDR75 / Fold change vs veh, WDR75 / RFU, AHCTF1 / Fold change vs veh, AHCTF1 / RFU, TFRC / Fold change vs veh, TFRC / RFU, ZDHHC17 / Fold change vs veh, ZDHHC17 / RFU, NOM1 / Fold change vs veh, NOM1 / RFU, ARL8B / Fold change vs veh, ARL8B / RFU, ZBTB11 / Fold change vs veh, ZBTB11 / RFU, TAMM41 / Fold change vs veh, TAMM41 / RFU, KIAA1704 /// LOC100996395 / Fold change vs veh, KIAA1704 /// LOC100996395 / RFU, ING1 / Fold change vs veh, ING1 / RFU, TRMT61B / Fold change vs veh, TRMT61B / RFU, FUBP3 / Fold change vs veh, FUBP3 / RFU, TP53 / Fold change vs veh, TP53 / RFU, TNKS2 / Fold change vs veh, TNKS2 / RFU, ZFP14 / Fold change vs veh, ZFP14 / RFU, ACTR2 / Fold change vs veh, ACTR2 / RFU, PPP3R1 / Fold change vs veh, PPP3R1 / RFU, PIK3R1 / Fold change vs veh, PIK3R1 / RFU, HNRNPA1 / Fold change vs veh, HNRNPA1 / RFU, RNF170 / Fold change vs veh, RNF170 / RFU, ZNF28 / Fold change vs veh, ZNF28 / RFU, RNGTT / Fold change vs veh, RNGTT / RFU, OGT / Fold change vs veh, OGT / RFU, BRD1 / Fold change vs veh, BRD1 / RFU, MARS / Fold change vs veh, MARS / RFU, ZNF655 / Fold change vs veh, ZNF655 / RFU, FAHD1 / Fold change vs veh, FAHD1 / RFU, BDP1 / Fold change vs veh, BDP1 / RFU, LRRCC1 / Fold change vs veh, LRRCC1 / RFU, ARID1A / Fold change vs veh, ARID1A / RFU, ZNF146 / Fold change vs veh, ZNF146 / RFU, ZNF330 / Fold change vs veh, ZNF330 / RFU, GPN3 / Fold change vs veh, GPN3 / RFU, C9orf123 / Fold change vs veh, C9orf123 / RFU, N4BP2L2 / Fold change vs veh, N4BP2L2 / RFU, ARFIP1 / Fold change vs veh, ARFIP1 / RFU, FAM179B / Fold change vs veh, FAM179B / RFU, BCL10 / Fold change vs veh, BCL10 / RFU, UHRF1BP1L / Fold change vs veh, UHRF1BP1L / RFU, BET1 / Fold change vs veh, BET1 / RFU, CNOT2 / Fold change vs veh, CNOT2 / RFU, ZNF268 / Fold change vs veh, ZNF268 / Fold change vs veh, ZNF507 / RFU, DGCR2 / Fold change vs veh, DGCR2 / RFU, WDSUB1 / Fold change vs veh, WDSUB1 / Fold change vs veh, HSP90B1 /// MIR3652 / RFU, ADSS / Fold change vs veh, ADSS / RFU, GK / Fold change vs veh, GK / RFU, ZNF148 / Fold change vs veh, ZNF148 / RFU, TAF9 / Fold change vs veh, TAF9 / RFU, SLC1A5 / Fold change vs veh, SLC1A5 / RFU, SLMO2 / Fold change vs veh, SLMO2 / RFU, ABCC4 / Fold change vs veh, ABCC4 / RFU, LOC101060439 /// RAP1B / Fold change vs veh, LOC101060439 /// RAP1B / RFU, RFX7 / Fold change vs veh, RFX7 / RFU, GTPBP10 / Fold change vs veh, GTPBP10 / RFU, CNEP1R1 / Fold change vs veh, CNEP1R1 / RFU, BIVM-ERCC5 /// ERCC5 / Fold change vs veh, BIVM-ERCC5 /// ERCC5 / RFU, ILF3 / Fold change vs veh, ILF3 / RFU 11762660_at / Fold change /veh 11762660_at / RFU VCAN (11757783_s_at) / Fold change /veh VCAN (11757783_s_at) / RFU DDX43 (11728927_at) / Fold change /veh DDX43 (11728927_at) / RFU KRT8 (11758188_x_at) / Fold change /veh KRT8 (11758188_x_at) / RFU NKD1 (11759106_at) / Fold change /veh NKD1 (11759106_at) / RFU SRD5A1 (11742802_a_at) / Fold change /veh SRD5A1 (11742802_a_at) / RFU TPSAB1 /// TPSB2 (11721975_s_at) / Fold change /veh TPSAB1 /// TPSB2 (11721975_s_at) / RFU GSTM3 (11746129_a_at) / Fold change /veh GSTM3 (11746129_a_at) / RFU IL23R (11737362_x_at) / Fold change /veh IL23R (11737362_x_at) / RFU TMEM51 (11727254_a_at) / Fold change /veh TMEM51 (11727254_a_at) / RFU PIWIL2 (11732686_x_at) / Fold change /veh PIWIL2 (11732686_x_at) / RFU ORM1 (11744905_x_at) / Fold change /veh ORM1 (11744905_x_at) / RFU CCDC152 (11743942_at) / Fold change /veh CCDC152 (11743942_at) / RFU ECM1 (11717891_a_at) / Fold change /veh ECM1 (11717891_a_at) / RFU IL23R (11748794_a_at) / Fold change /veh IL23R (11748794_a_at) / RFU TNFAIP8L3 (11732012_x_at) / Fold change /veh TNFAIP8L3 (11732012_x_at) / RFU MBOAT4 (11741988_at) / Fold change /veh MBOAT4 (11741988_at) / RFU 11764193_at / Fold change /veh 11764193_at / RFU TMEM53 (11763286_at) / Fold change /veh TMEM53 (11763286_at) / RFU MAGEB2 (11727129_at) / Fold change /veh MAGEB2 (11727129_at) / RFU TMEM200A (11744735_a_at) / Fold change /veh TMEM200A (11744735_a_at) / RFU CCDC152 (11751479_a_at) / Fold change /veh CCDC152 (11751479_a_at) / RFU FAM211A (11726209_a_at) / Fold change /veh FAM211A (11726209_a_at) / RFU RGS16 (11746705_a_at) / Fold change /veh RGS16 (11746705_a_at) / RFU VCAN (11755009_s_at) / Fold change /veh VCAN (11755009_s_at) / RFU RHOB (11743442_s_at) / Fold change /veh RHOB (11743442_s_at) / RFU RGS16 (11720943_a_at) / Fold change /veh RGS16 (11720943_a_at) / RFU RGS16 (11720944_at) / Fold change /veh RGS16 (11720944_at) / RFU, VPS4B / Fold change vs veh, VPS4B / RFU, CREB1 / Fold change vs veh, CREB1 / RFU, DNAJC13 / Fold change vs veh, DNAJC13 / RFU, GNAQ / Fold change vs veh, GNAQ / RFU, CDK5R1 / Fold change vs veh, CDK5R1 / RFU, ZRANB3 / Fold change vs veh, ZRANB3 / RFU, CUL4A / Fold change vs veh, CUL4A / RFU, CCNY / Fold change vs veh, CCNY / RFU, UFL1 / Fold change vs veh, UFL1 / RFU, COG3 / Fold change vs veh, COG3 / RFU, DIAPH2 / Fold change vs veh, DIAPH2 / RFU, SKA2 / Fold change vs veh, SKA2 / RFU, AFF3 / Fold change vs veh, AFF3 / RFU, LMF1 / Fold change vs veh, LMF1 / RFU, IPO11 / Fold change vs veh, IPO11 / RFU, DFFB / Fold change vs veh, DFFB / RFU, FOXP1 / Fold change vs veh, FOXP1 / RFU, CARD8 / Fold change vs veh, CARD8 / RFU, STRN3 / Fold change vs veh, STRN3 / RFU, ADK / Fold change vs veh, ADK / RFU, RASSF2 / Fold change vs veh, RASSF2 / RFU, WIPF1 / Fold change vs veh, WIPF1 / RFU, LARP1B / Fold change vs veh, LARP1B / RFU, RASA1 / Fold change vs veh, RASA1 / RFU, RB1 / Fold change vs veh, RB1 / RFU, PPFIA1 / Fold change vs veh, PPFIA1 / RFU, MAT2A / Fold change vs veh, MAT2A / RFU, CCT5 / Fold change vs veh, CCT5 / RFU, WDR92 / Fold change vs veh, WDR92 / RFU, CUX1 / Fold change vs veh, CUX1 / RFU, TTC7A / Fold change vs veh, TTC7A / RFU, TMEM135 / Fold change vs veh, TMEM135 / RFU, DEPTOR / Fold change vs veh, DEPTOR / RFU, CPM / Fold change vs veh, CPM / RFU, DNAJB6 / Fold change vs veh, DNAJB6 / RFU, CACNA2D3 / Fold change vs veh, CACNA2D3 / RFU, DTX4 / Fold change vs veh, DTX4 / RFU, TFCP2 / Fold change vs veh, TFCP2 / RFU, GMCL1 /// GMCL1P1 / Fold change vs veh, GMCL1 /// GMCL1P1 / RFU, AEBP2 / Fold change vs veh, AEBP2 / RFU, SNHG1 /// SNORD22 /// SNORD25 /// SNORD26 /// SNORD27 /// SNORD28 /// SNORD29 /// SNORD31 / Fold change vs veh, SNHG1 /// SNORD22 /// SNORD25 /// SNORD26 /// SNORD27 /// SNORD28 /// SNORD29 /// SNORD31 / Fold change (Aza/veh), C12orf56 (ProbeSet 11735607_a_at) / Fold change (ACY-1035/veh), C12orf56 (ProbeSet 11735607_a_at) / Fold change (Aza/veh), FGFR1OP (ProbeSet 11751329_s_at) / Fold change (ACY-1035/veh), FGFR1OP (ProbeSet 11751329_s_at) / Fold change (Aza/veh), VPS36 (ProbeSet 11739960_a_at) / Fold change (ACY-1035/veh), VPS36 (ProbeSet 11739960_a_at) / RFU SYPL1 (11715823_x_at) / Fold change /veh SYPL1 (11715823_x_at) / RFU IGFBP7 (11715501_s_at) / Fold change /veh IGFBP7 (11715501_s_at) / RFU REEP3 (11722064_at) / Fold change /veh REEP3 (11722064_at) / RFU IGLL1 (11728026_x_at) / Fold change /veh IGLL1 (11728026_x_at): dose or concentration left out as unconfirmed
# Settings: ProbeSet 11725217_a_at; LIST B
smiles,measurement,value
Nc1ncn([C@@H]2O[C@H](CO)[C@@H](O)[C@H]2O)c(=O)n1 [azacitidine],"Fold change vs veh, WDSUB1",0.86
